Assay results reported in PubChem BioAssay (NCI).
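GI50 = concentration required for 50% inhibition of growth. TGI is the concentration that stops growth completely.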

Experiments:
Assay in all cases: NCI tumour cell line growth inhibition, 384-well format
[1] = system: A498 renal
[2] = system: A549 NSCLC
[3] = system: ACHN renal
[4] = system: BT-549 breast
[5] = system: CAKI-1 renal
[6] = system: COLO 205 colon
[7] = system: DU-145 prostate
[8] = system: EKVX NSCLC
[9] = system: HCT-15 colon
[10] = system: HL-60(TB) leukemia
[11] = system: HOP-62 NSCLC
[12] = system: HS 578T breast
[13] = system: HT29 colon
[14] = system: IGROV1 ovarian
[15] = system: K-562 leukemia
[16] = system: KM12 colon
[17] = system: LOX IMVI melanoma
[18] = system: M14 melanoma
[19] = system: MALME-3M melanoma
[20] = system: MDA-MB-231 breast
[21] = system: MDA-MB-435 melanoma
[22] = system: MDA-MB-468 breast
[23] = system: MOLT-4 leukemia
[24] = system: NCI-H322M lung
[25] = system: NCI-H460 NSCLC
[26] = system: NCI-H522 lung
[27] = system: NCI/ADR-RES ovarian
[28] = system: OVCAR-3 ovarian
[29] = system: OVCAR-4 ovarian
[30] = system: OVCAR-8 ovarian
[31] = system: PC-3 prostate
[32] = system: RPMI-8226 leukemia
[33] = system: SF-268 CNS
[34] = system: SF-539 CNS
[35] = system: SK-MEL-5 melanoma
[36] = system: SK-OV-3 ovarian
[37] = system: SNB-19 CNS
[38] = system: SNB-75 CNS
[39] = system: SW-620 colon
[40] = system: T-47D breast
[41] = system: TK-10 renal
[42] = system: U251 glioblastoma
[43] = system: UACC-257 melanoma
[44] = system: UACC-62 melanoma
[45] = system: UO-31 renal

Cc1cc(-c2ncc(-c3cccnc3)cc2/C=C/c2ccccc2)cnc1-c1cccnc1 was tested, and the GI50 [1] was 2.78 µM, the TGI [1] was 9.16 µM and the GI50 [2] was 3.33 µM. For the same compound, the TGI [2] was greater than 100 µM, the GI50 [3] was 3.79 µM and the GI50 [4] was 2.32 µM. It also gave a TGI [4] of 9.63 µM, a GI50 [5] of 3.04 µM and a TGI [5] of 21.4 µM. For the same compound, the GI50 [6] was 6.06 µM, the GI50 [7] was 1.81 µM and the TGI [7] was 3.55 µM. For the same compound, the GI50 [8] was 3.15 µM, the GI50 [9] was 3.54 µM and the GI50 [10] was 1.32 µM. For the same compound, the TGI [10] was 2.59 µM, the GI50 [11] was 1.85 µM and the TGI [11] was 4.11 µM. For the same compound, the GI50 [12] was 1.6 µM, the TGI [12] was 3.56 µM and the GI50 [13] was 3.69 µM. For the same compound, the GI50 [14] was 3.72 µM, the GI50 [15] was 3 µM and the TGI [15] was 32.2 µM. The GI50 [16] was 3.15 µM, the TGI [16] was 12.1 µM and the GI50 [17] was 2.22 µM. It also gave a TGI [17] of 5.08 µM, a GI50 [18] of 3.76 µM and a TGI [18] of 12.6 µM. The GI50 [19] was 2.53 µM, the TGI [19] was 6.85 µM and the GI50 [20] was 4.15 µM. It also gave a TGI [20] of 22.5 µM, a GI50 [21] of 6.49 µM and a GI50 [22] of 3.34 µM. For the same compound, the GI50 [23] was 1.13 µM, the TGI [23] was 2.34 µM and the GI50 [24] was 2.29 µM. The TGI [24] was 5.49 µM, the GI50 [25] was 1.93 µM and the TGI [25] was 3.46 µM. The GI50 [26] was 2.02 µM, the TGI [26] was 5.12 µM and the GI50 [27] was 2.19 µM. For the same compound, the TGI [27] was 5.42 µM, the GI50 [28] was 2.37 µM and the TGI [28] was 5.95 µM. The GI50 [29] was 2.75 µM, the TGI [29] was 9.25 µM and the GI50 [30] was 2.41 µM. It also gave a TGI [30] greater than 100 µM, a GI50 [31] of 2.04 µM and a TGI [31] of 4.58 µM. It also gave a GI50 [32] of 0.62 µM, a TGI [32] of 2.37 µM and a GI50 [33] of 3.68 µM. It also gave a TGI [33] of 15.3 µM, a GI50 [34] of 3.76 µM and a GI50 [35] of 1.12 µM. The TGI [35] was 2.57 µM, the GI50 [36] was 3.17 µM and the TGI [36] was 11.3 µM. It also gave a GI50 [37] of 3.82 µM, a TGI [37] of 19.6 µM and a GI50 [38] of 3.07 µM. It also gave a TGI [38] of 16.7 µM, a GI50 [39] of 3.93 µM and a GI50 [40] of 1.93 µM. For the same compound, the TGI [40] was 8.06 µM, the GI50 [41] was 3.24 µM and the GI50 [42] was 3.8 µM. It also gave a GI50 [43] of 6.52 µM, a GI50 [44] of 2.16 µM and a TGI [44] of 7.5 µM. The GI50 [45] was 2.99 µM.
